The record followed here is patent publication US8673882B2, “Inhibitors of autotaxin” (University of Tennessee Research Foundation, priority 2011, dated 2014).

Common to all, as to format: biochemical
The target of assay [1] is T1, recombinant human ATX (Homo sapiens, UniProt Q13822). In words: Autotaxin inhibition screening assay (FS-3 FRET substrate). The settings on record: for remaining activity at 10 µM: 1 μM FS-3, 37° C., read-out: ATX Activity, % control (10 μM); for inhibition at 10 µM: read-out: inhibition (reduction) of FS3 hydrolysis. The method, then: A 10 μM concentration of the compound is added to 2 nM recombinant human ATX and the FRET (Fluorescence Resonance Energy Transfer) ATX substrate FS-3.
As the first level of screen, 50 μl of recombinant-ATX (2 nM in final concentration) in assay buffer [(Tris 50 mM, NaCl 140 mM, KCl 5 mM, CaCl2 1 mM, MgCl2 1 mM (pH 8.0)] was mixed with 25 μL of FS-3 (Echelon Biosciences, Inc., Salt lake city, Utah), final concentration 1 μM, and 25 μl of test compound was dissolved in assay buffer with 40 μM bovine serum albumin (Sigma, St. Louis, Mo.) in 96-well Costar black-well plate. FS-3 fluorescence at excitation and emission wavelengths of 485 and 538 nm, respectively, were monitored using a FLEXstation II (Molecular Devices, Sunnyvale, Calif.) for 2 h of incubation at 37° C. The differences between time 0 and 120 min were calculated individually and normalized to the vehicle control. The mean±SD of triplicate samples was expressed as percentage of ATX activity. The ATX activity in the presence of the test compounds was compared to vehicle using the […] p<0.05 was considered significant.
The first level of testing was done using 10 μM concentrations of the compounds shown in Tables 1 and 2 added to 2 nM recombinant human ATX and the FRET substrate FS-3. After a 2 h incubation the amount of FS3 hydrolyzed was measured and the residual ATX activity was expressed as a percent of the vehicle-treated sample less the autolysis of FS3 in the absence of ATX.

Assay [2] has as its target T2, NPP6 (Homo sapiens, UniProt Q6UWR7).
T2 sequence (Q6UWR7 23-419): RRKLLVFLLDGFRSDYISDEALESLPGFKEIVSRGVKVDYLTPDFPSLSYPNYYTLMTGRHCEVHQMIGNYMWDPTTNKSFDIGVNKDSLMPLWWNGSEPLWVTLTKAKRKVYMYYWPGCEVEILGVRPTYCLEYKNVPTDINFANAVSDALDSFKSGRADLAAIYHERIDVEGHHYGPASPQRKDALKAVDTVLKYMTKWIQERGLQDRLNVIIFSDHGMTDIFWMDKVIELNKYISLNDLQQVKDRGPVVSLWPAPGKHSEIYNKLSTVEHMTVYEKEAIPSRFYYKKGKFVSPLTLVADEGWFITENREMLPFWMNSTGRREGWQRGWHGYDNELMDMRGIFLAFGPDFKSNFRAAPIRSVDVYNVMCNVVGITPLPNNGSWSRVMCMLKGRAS
In words: NPP-6 inhibition assay (pNPPC substrate). The settings on record: 10 μM compound; 8.3 nM enzyme; 10 μM pNPPC; read-out: NPP6 Activity, % control (10 μM). As to the method:
NPP6 and NPP7 are the only NPP isoforms other than ATX that are known to utilize lysophospholipid phosphodiesters as substrates. Therefore, the specificity of the chemical compounds of the invention regarding ATX was addressed by determining the activity of NPP6 and NPP7 in the presence and absence of these analogs.
Inhibition of NPP6 and NPP7 was evaluated using recombinant, purified proteins, the synthetic substrate para-nitrophenylphosphocholine (pNPPC) and a Synergy II plate reader (BioTek, Winooski, Vt.). The final concentration of each enzyme was 8.3 nM and pNPPC was 10 μM. All analogs were tested at single 10 μM concentrations. Absorbance of liberated para-nitrophenol at 405 nm was determined up to 1 hour (where responses were linear) and was normalized to vehicle control.

Assay [3] concerns the target T1, recombinant human ATX. In words: Autotaxin inhibition screening assay (FS-3 FRET substrate). The settings on record: FS3 hydrolysis.
The mark [4] stands for this setting: 10 μM compound, 2 nM recombinant human ATX, 2 h.

Like-named read-outs stand apart in the source and are kept apart here.

Broadly, the inhibition is the change of the read-out against control, counted positive when it falls. With `CCCCCCCCCCCCCCCc1ccc(CP(=O)(O)O)cc1` [Compound 22, 4-Pentadecylbenzylphosphonic acid], the figures for the remaining activity at 10 µM in assay [1] (setting [4]) and in assay [2] were 5.2% and 96.5%, respectively. Also, the inhibition at 10 µM in assay [1] amounted to 95%. The “ATX inhibition in dose-response curves (FIG. 10)” value in assay [3] was “dose-dependently and completely inhibited ATX”.
On to `CCCCCCCCCCC/C=C/c1ccc2cc(CP(=O)(O)O)ccc2c1` [Compound 30b, (E)-6-Tridec-1-enyl-naphthalen-2-yl-methylphosphonic acid], for which, in assay [1] (setting [4]), the remaining activity at 10 µM was determined as 17.3% and the inhibition at 10 µM came out at 83%. For the same compound, the remaining activity at 10 µM in assay [2] worked out at 104%. Also, the “ATX inhibition in dose-response curves (FIG. 10)” value in assay [3] is “dose-dependently and completely inhibited ATX”.
